According to patent US4980377A, “1-(aminophenyl)-2-aminopropanone derivatives” (Laboratoire L. Lafon, priority 1984, dated 1990):

What was measured:
humans = experiment: Clinical study: vasodilator; assay type: in vivo, human
Description: In the treatment of diseases associated with the blood circulation through the vessels.

mice [1] = experiment: Behavioral despair; assay type: in vivo, mouse; settings: forcibly immersed mice, i.p.
Description: Half an hour after they have received CRL 41 153, groups of 6 mice are placed in a beaker filled with water to a height of 6 cm. The total period of immobility between the 2nd and 6th minutes following immersion is noted.

mice [2] = experiment: Interaction with oxotremorine; assay type: in vivo, mouse; settings: i.p.
Procedure: CRL 41 153 is administered to groups of 6 mice 0.5 hour before the intraperitoneal injection of 0.5 mg/kg of oxotremorine.

mice [3] = experiment: Motility reduced by habituation to the enclosure; assay type: in vivo, mouse; settings: i.p.
Procedure: After they have stayed In the actimeters for 18 hours, (he mice (6 per dose, 12 control animals) receive CRL 41 153. They are immediately returned to their respective enclosures and, half an hour later, their motility is recorded for 30 minutes.

[4] = pH of solutions in distilled water; assay type: physicochemical
Procedure: The neuropsychopharmacological study was undertaken according to the procedures described above for CRL 41 153, CRL 41 213 being adminstered intraperitoneally, in solution in distilled water, in a volume of 20 ml/kg to male mice and a volume of 5 ml/kg to male rats, and the pH of the injected solution varying with the concentration of CRL 41 213 according to the data given in Table II below.

mice [5] = experiment: Interaction with reserpine; assay type: in vivo, mouse; settings: i.p.
Procedure: Four hours after the intraperitoneal injection of 2.5 mg/kg of reserpine, groups of 6 mice receive CRL 41 153.

rats [6] = experiment: Interaction with apomorphine in rats; assay type: in vivo, rat; settings: i.p.
Procedure: CRL 41 153 is administered to groups of 6 rats 0.5 hour before the subcutaneous injection of 0.5 mg/kg of apomorphine.

mice [7] = experiment: Motility reduced by hypoxic aggression; assay type: in vivo, mouse; settings: i.p.
Procedure: Half an hour after they have received CRL 41 153, the mice (10 per dose, 20 control animals) are subjected to acute hypobaric anoxia [pressure reduction of 600 mm Hg (i.e. about 8×10^4 Pa) in 90 seconds; release of vacuum in 45 seconds] and are then placed in an actimeter, where their motility is recorded for 10 minutes.

mice [8] = experiment: Interaction with barbital; assay type: in vivo, mouse; settings: i.p., barbital 220 mg/kg
Procedure: Half an hour after the administration of CRL 41 153, groups of 10 mice receive an intraperitoneal injection of barbital (220 mg/kg).

mice [9] = experiment: Asphyxiant anoxia (gallamine triiodoethylate); assay type: in vivo, mouse; settings: i.p., curarizing agent
Procedure: Groups of 10 mice receive CRL 41 153 half an hour before the intraperitoneal administration of 32 mg/kg of gallamine triiodoethylate (reference curarizing agent).

dogs = experiment: Cardiovascular study in anesthetized dogs; assay type: in vivo, dog
Procedure: Two dogs (average weight: 14.1 kg), anesthetized with nembutal, receive CRL 41 194 by intraduodenal administration at successive doses of 0.1 mg/kg, 0.5 mg/kg, 1 mg/kg, 2.5 mg/kg, 5 mg/kg and 10 mg/kg (in solution in physiological solvent).
The blood pressure, the heart rate, the blood flow through the femoral artery, the blood flow through the vertebral artery and the rectal temperature are measured. The coloration of the skin and the coloration of the bile, collected by catheterization of the bile duct after ligature of the cystic duct, are observed.
4 dogs (average weight: 14 kg), anesthetized with nembutal, receive CRL 41 221 by intraduodenal administration at successive doses of 0.1 mg/kg, 0.5 mg/kg, 1 mg/kg, 2.5 mg/kg, 5 mg/kg and 10 mg/kg. The blood pressure, the heart rate, the blood flow through the femoral artery, the blood flow through the vertebral artery and the rectal temperature are measured. The coloration of the skin is observed.

[10] = test system: gravid White New Zealand female rabbits; experiment: Teratogenicity in gravid White New Zealand rabbits; assay type: in vivo, rabbit; settings: day 5 to day 18 of gestation; for Affected foetuses, %: normal limit 1.5%
Method in brief: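 Fetuses harvested by cesarean on gestation day 29 were scored for number and for any malformation (limb blockade, anury, tail or skull defects, exencephaly).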

mice [11] = experiment: Interaction with apomorphine in mice; assay type: in vivo, mouse; settings: i.p.
Procedure: Groups of 6 mice receive CRL 41 153 0.5 hour before the subcutaneous injection of 1 or 16 mg/kg of apomorphine.

mice [12] = experiment: Spontaneous motility; assay type: in vivo, mouse; settings: i.p.
Procedure: 0.5 hour after they have received CRL 41 153, the mice (6 per dose, 12 control animals) are placed in an actimeter, where their motility is recorded for 30 minutes.

CNS = experiment: Neuropsychopharmacological profile as a whole; assay type: in vivo, mice and rats
Procedure: (§1) In the neuropsychopharmacological study which follows, a solution of CRL 41 153 in distilled water (pH 1.5) was administered intraperitoneally in a volume of 20 ml/kg to male mice and 5 ml/kg to male rats.

rats [13] = experiment: Overall behavior and reactivities in rats; assay type: in vivo, rat; settings: dose not stated
Procedure: as §1
(§2) Groups of three animals are observed before and then 0.25 hour, 0.50 hour, 1 hour, 2 hours, 3 hours and 24 hours after the administration of CRL 41 153.

mice [14] = experiment: Overall behavior and reactivities in mice; assay type: in vivo, mouse; settings: dose not stated
Procedure: as §1, §2

rats [15] = experiment: Interaction with amphetamine; assay type: in vivo, rat; settings: i.p.
Procedure: Amphetamine (2 mg/kg) is injected intraperitoneally into groups of 6 rats 30 minutes after the administration of CRL 41 153. […] 4 mg/kg and 16 mg/kg, CRL 41 153 potentiates the intensity and duration of the stereotypies induced by amphetamine.

mice [16] = experiment: Intergroup aggressiveness; assay type: in vivo, mouse; settings: i.p.
Procedure: After they have stayed for 3 weeks in the two halves of a cage divided by an opaque partition, groups of 3 mice receive CRL 41 153. Half an hour later, the two groups from the same cage are brought together by removal of the partition, and the number of fights which occur in 10 minutes is noted.

mice [17] = experiment: Four plate test, traction and electric shock; assay type: in vivo, mouse; settings: i.p.
Procedure: The test is performed on groups of 10 mice 30 minutes after the administration of CRL 41 153.

Question: For `CCNC(C)C(=O)c1ccc(N)cc1` (stereo not drawn) [CRL 41 225], which “Vasodilator in human clinical use” value (humans) is on record?
Answer: beneficial vasodilating properties from the clinical point of view

Question: And the “Period of immobility due to despair” value (mice [1])?
Answer: a decrease in the period of immobility

Question: And the “Effect on hypothermic action of oxotremorine” value (mice [2])?
Answer: antagonism of the hypothermia

Question: And the “Effect on trembling induced by oxotremorine” value (mice [2])?
Answer: a decrease in the intensity of the trembling caused by oxotremorine

Question: And the “Motor activity of mice accustomed to their enclosure” value (mice [3])?
Answer: resumption in the motor activity of mice accustomed to their enclosure

Question: What about the pH ([4]; 0.1 g/liter in distilled water) of the same compound?
Answer: 5.0

Question: What about the pH ([4]; 0.2 g/liter in distilled water) of the same compound?
Answer: 4.5

Question: What about the pH ([4]; 0.4 g/liter in distilled water) of the same compound?
Answer: 4.0

Question: What about the pH ([4]; 0.8 g/liter in distilled water) of the same compound?
Answer: 3.5

Question: What about the pH ([4]; 2 g/liter in distilled water) of the same compound?
Answer: 3.0

Question: And the pH ([4]; 3 g/liter in distilled water)?
Answer: 2.5

Question: What about the pH ([4]; 13 g/liter in distilled water) of the same compound?
Answer: 2.0

Question: And the pH ([4]; 50 g/liter in distilled water)?
Answer: 1.5

Question: What about the pH ([4]; ≤0.05 g/liter in distilled water) of the same compound?
Answer: 5.5

Question: What about the “Effect on hypothermia induced by reserpine” value (mice [5]) of the same compound?
Answer: antagonism of the hypothermia

Question: And the “Effect on ptosis induced by reserpine” value (mice [5])?
Answer: a decrease in the ptosis induced by reserpine in mice

Question: What about the “Effect on stereotypies induced by apomorphine” value (rats [6]) of the same compound?
Answer: potentiation of the stereotypies

Question: What about the “Motor recovery of mice after hypobaric hypoxia” value (mice [7]) of the same compound?
Answer: improvement in the motor recovery

Question: What about the “Duration of the sleep induced by barbital” value (mice [8]) of the same compound?
Answer: a reduction in the duration of the sleep induced by barbital

Question: What about the “Time taken for convulsions to occur” value (mice [9]) of the same compound?
Answer: a decrease in the time taken for convulsions and death to occur

Question: And the “Time taken for death to occur” value (mice [9])?
Answer: a decrease in the time taken for convulsions and death to occur

Question: And the “Vasodilator (conclusion)” value (dogs)?
Answer: vasodiating properties

Question: What about the “Affected foetuses, number” value ([10]; 5 mg/kg daily) of the same compound?
Answer: 0

Question: And the “Total foetuses (live)” value ([10]; 5 mg/kg daily)?
Answer: 91

Question: What about the “Affected foetuses, %” value ([10]; 5 mg/kg daily) of the same compound?
Answer: 0%

Question: What about the “Affected foetuses, number” value ([10]; 10 mg/kg daily) of the same compound?
Answer: 0

Question: And the “Total foetuses (live)” value ([10]; 10 mg/kg daily)?
Answer: 95

Question: And the “Affected foetuses, %” value ([10]; 10 mg/kg daily)?
Answer: 0%

Question: What about the “Effect on hypothermia induced by apomorphine” value (mice [11]) of the same compound?
Answer: antagonism of the hypothermia

Question: And the Spontaneous motor activity (mice [12])?
Answer: an increase in the spontaneous motor activity of mice

Question: What about the “Antidepressant effects (overall)” value (CNS; conclusion of the tests) of the same compound?
Answer: antidepressant and stimulant properties

Question: And the “Stimulant effects (overall)” value (CNS; conclusion of the tests)?
Answer: antidepressant and stimulant properties

Question: What about the “α-adrenergic stimulant effects (overall)” value (CNS; conclusion of the tests) of the same compound?
Answer: an α-adrenergic stimulation component

Question: What about the “Peripheral α-adrenergic signs (mydriasis, salivation, lacrimation, exophthalmos)” value (CNS; species and dose not stated) of the same compound?
Answer: at strong doses, by a reduction in the mydriasis and salivation

Question: What about the “Overall behavior: observed effects (summary)” value (rats [13]) of the same compound?
Answer: excitation with hyperreactivity in mice and rats

Question: What about the “Stereotype movements (summary)” value (rats [13]) of the same compound?
Answer: the presence of stereotype movements in mice and rats

Question: And the “Overall behavior: observed effects (summary)” value (mice [14])?
Answer: excitation with hyperreactivity in mice and rats

Question: What about the “Stereotype movements (summary)” value (mice [14]) of the same compound?
Answer: the presence of stereotype movements in mice and rats

Question: What about the “Effect on stereotypies induced by amphetamine” value (rats [15]) of the same compound?
Answer: potentiation of the stereotypies

Question: What about the “Number of fights / intergroup aggressiveness” value (mice [16]) of the same compound?
Answer: at strong doses, a decrease in the number of fights

Question: And the “Effect on convulsant effects of electric shock” value (mice [17])?
Answer: at strong doses, a decrease in the convulsant effects of electric shock

Question: What about the “Number of punished passes in the four plate test” value (mice [17]) of the same compound?
Answer: an increase in the number of punished passes in the 4 plate test on mice
